Tested on: Cells of a light cow embryo (LCE)
Test: State of the LCE cell monolayer with the drug without the virus
Assay type: cell-based
Description: Cells of a light cow embryo (LCE) are obtained from the Federal State Budgetary Institution “All-Russian Institute of Experimental Veterinary Medicine”, Moscow. Bovine rhinotracheitis virus (herpes virus family), vaccine strain “TK-A (VIEV)-V2” was obtained from the Federal State Budgetary Institution “All-Russian Institute of Experimental Veterinary Medicine”, Moscow.
The virus was incubated in the presence of compound I in a culture medium at 37° C. for one hour at various concentrations; miramistin and benzalkonium chloride served as control preparations. After incubation of the virus with substances, it was added to the cell culture, which was then incubated at 37° C., 5% CO2 for 72 hours.
Evaluation of the cytopathogenic effect was carried out visually by the state of the cell monolayer as compared with the controls (virus without incubation with the drug, the studied drug concentrations without the virus). The virus titer was calculated using the method of Reed-Muench in the modification of Ashmarin and expressed in Ig TCD50/ml.

Measured: destruction of the monolayer, drug without the virus

CCCCCCCCCCCCCC(=O)NCCC[N+](C)(C)Cc1ccccc1.O.[Cl-] [Miramistin, benzyldimethyl [3-(myristoylamino)propyl]-ammonium chloride monohydrate]
− (−0-10% destruction of the monolayer): 50 μg/ml | 100 μg/ml | 150 μg/ml | 200 μg/ml
